Measured values published in ChEMBL document CHEMBL1153666, “K-13 and of4949: Evaluation of key partial structures and pharmacophore delineation” (Bioorg Med Chem Lett, 1993).
The source made the active and inactive calls. The rule behind the calls is not given here.

Key:
[1] = target: T1, Angiotensin-converting enzyme (Oryctolagus cuniculus) (UniProt P12822); assay: Inhibition of Angiotensin I converting enzyme from rabbit lung acetone powder extract; Inactive
T1 sequence (whole entry): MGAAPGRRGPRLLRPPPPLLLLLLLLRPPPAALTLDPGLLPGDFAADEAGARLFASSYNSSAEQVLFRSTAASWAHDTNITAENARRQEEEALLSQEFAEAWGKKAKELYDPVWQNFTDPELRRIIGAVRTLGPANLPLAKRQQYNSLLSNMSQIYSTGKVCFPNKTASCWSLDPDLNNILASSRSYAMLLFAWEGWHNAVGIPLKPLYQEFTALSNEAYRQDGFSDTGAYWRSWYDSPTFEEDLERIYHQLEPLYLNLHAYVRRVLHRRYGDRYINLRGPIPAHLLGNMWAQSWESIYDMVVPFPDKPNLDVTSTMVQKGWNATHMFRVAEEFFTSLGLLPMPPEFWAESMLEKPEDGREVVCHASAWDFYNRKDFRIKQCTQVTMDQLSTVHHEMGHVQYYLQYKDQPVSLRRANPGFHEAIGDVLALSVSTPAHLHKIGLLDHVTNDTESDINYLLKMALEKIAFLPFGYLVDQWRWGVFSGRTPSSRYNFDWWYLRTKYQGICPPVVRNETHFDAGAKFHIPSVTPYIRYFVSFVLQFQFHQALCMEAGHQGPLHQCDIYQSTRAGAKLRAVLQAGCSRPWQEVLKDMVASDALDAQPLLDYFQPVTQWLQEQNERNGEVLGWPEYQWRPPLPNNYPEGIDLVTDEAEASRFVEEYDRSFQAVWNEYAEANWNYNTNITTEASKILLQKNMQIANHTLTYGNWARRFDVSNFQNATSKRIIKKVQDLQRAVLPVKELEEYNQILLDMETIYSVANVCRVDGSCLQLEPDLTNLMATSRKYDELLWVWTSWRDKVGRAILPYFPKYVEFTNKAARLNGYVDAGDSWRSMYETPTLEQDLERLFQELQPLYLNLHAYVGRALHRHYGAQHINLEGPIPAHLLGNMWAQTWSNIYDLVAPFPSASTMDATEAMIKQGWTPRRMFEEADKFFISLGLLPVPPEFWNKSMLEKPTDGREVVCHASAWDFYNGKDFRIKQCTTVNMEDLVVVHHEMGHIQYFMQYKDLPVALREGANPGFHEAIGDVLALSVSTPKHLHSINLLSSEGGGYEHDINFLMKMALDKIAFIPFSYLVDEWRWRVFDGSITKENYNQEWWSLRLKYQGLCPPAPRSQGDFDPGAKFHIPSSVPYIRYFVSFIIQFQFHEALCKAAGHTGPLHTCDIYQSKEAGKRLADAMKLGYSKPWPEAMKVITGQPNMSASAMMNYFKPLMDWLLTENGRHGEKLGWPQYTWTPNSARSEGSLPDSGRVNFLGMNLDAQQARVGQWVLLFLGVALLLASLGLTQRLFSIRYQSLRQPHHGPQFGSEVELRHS

Aminopeptidase B [2] = target: T2, Aminopeptidase B (Rattus norvegicus, UniProt O09175); assay: Tested for concentration that causes 50% inhibition of rat liver aminopeptidase B, was determined; conditions: read-out: I50 (converted)
T2 sequence (O09175 whole entry): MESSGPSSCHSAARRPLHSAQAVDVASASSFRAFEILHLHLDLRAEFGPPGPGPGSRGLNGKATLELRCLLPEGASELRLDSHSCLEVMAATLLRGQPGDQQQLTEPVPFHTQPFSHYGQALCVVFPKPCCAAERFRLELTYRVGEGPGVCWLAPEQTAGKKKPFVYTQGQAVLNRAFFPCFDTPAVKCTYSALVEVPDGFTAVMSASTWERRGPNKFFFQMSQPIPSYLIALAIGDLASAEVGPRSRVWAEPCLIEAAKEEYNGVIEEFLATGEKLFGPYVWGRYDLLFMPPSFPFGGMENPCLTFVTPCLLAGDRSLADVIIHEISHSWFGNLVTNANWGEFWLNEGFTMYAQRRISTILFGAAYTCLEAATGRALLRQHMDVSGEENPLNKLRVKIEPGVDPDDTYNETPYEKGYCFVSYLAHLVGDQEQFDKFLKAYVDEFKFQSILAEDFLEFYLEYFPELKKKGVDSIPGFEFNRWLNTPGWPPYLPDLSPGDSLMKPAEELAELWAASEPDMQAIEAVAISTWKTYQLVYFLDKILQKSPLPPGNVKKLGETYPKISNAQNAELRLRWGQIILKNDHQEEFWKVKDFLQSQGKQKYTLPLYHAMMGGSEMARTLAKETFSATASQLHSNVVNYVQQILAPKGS

[3] = target: T1, Angiotensin-converting enzyme (Oryctolagus cuniculus); assay: Tested for percent inhibitory concentration that cause inhibition of Angiotensin I converting enzyme obtained from rabbit lung acetone powder extract at 100 ug/mL
P388 [4] = assay: Tested for concentration that causes 50% inhibition of P388 leukemic cell growth, was determined in vitro; assay type: functional, cell-based; conditions: Mus musculus
[5] = target: T3, Angiotensin-converting enzyme (Oryctolagus cuniculus, UniProt P12822); assay: Inhibitory concentration against Angiotensin I converting enzyme obtained from rabbit lung acetone powder extract; conditions: read-out: I50 (converted)
T3 sequence (P12822 whole entry): T1 sequence (whole entry)

[6] = target: T1, Angiotensin-converting enzyme (Oryctolagus cuniculus); assay: Tested for inhibitory concentration that causes inhibition of Angiotensin I converting enzyme obtained from rabbit lung acetone powder extract; conditions: concentration not given here
Aminopeptidase B [7] = target: T2, Aminopeptidase B; assay: Tested for concentration that causes 50% inhibition of rat liver aminopeptidase B, was determined; Inactive
[8] = target: T1, Angiotensin-converting enzyme (Oryctolagus cuniculus); assay: Tested for percent inhibitory concentration that cause inhibition of Angiotensin I converting enzyme obtained from rabbit lung acetone powder extract at 200 ug/mL
[9] = target: T4, Aminopeptidase B (Rattus norvegicus) (UniProt O09175); assay: Tested for percent inhibitory concentration that cause inhibition of rat liver aminopeptidase B at 220 ug/mL
T4 sequence (whole entry): T2 sequence (O09175 whole entry)

[10] = target: T3, Angiotensin-converting enzyme; assay: Tested for inhibitory concentration that causes inhibition of Angiotensin I converting enzyme obtained from rabbit lung acetone powder extract); conditions: read-out: I50 (converted)
[11] = target: T3, Angiotensin-converting enzyme; assay: Tested for inhibitory constant against Angiotensin I converting enzyme
[12] = target: T4, Aminopeptidase B (Rattus norvegicus); assay: Percent inhibition of rat liver aminopeptidase B by 230 ug/mL was determined
P388 [13] = assay: Tested in vitro for concentration that causes 50% inhibition of P388 leukemic cell growth; assay type: functional, cell-based; conditions: Mus musculus

inhibition [1]	IC50 [5]	SMILES	also measured
inactive	–	COC(=O)[C@H](Cc1ccc(OCc2ccccc2)c(Oc2ccc(C[C@H](NC(=O)[C@H](CC(N)=O)NC(=O)OC(C)(C)C)C(=O)OC)cc2)c1)NC(=O)OCc1ccccc1	–
–	–	NC(=O)C[C@@H]1NC(=O)[C@@H](N)Cc2ccc(O)c(c2)Oc2ccc(cc2)C[C@@H](C(=O)O)NC1=O	IC50 (Aminopeptidase B [2]): 43.8 µM; inhibition [3]: 11%; IC50 (P388 [4]): > 10 mg/L
–	535 µM	COc1ccc2cc1Oc1ccc(cc1)CCNC(=O)[C@H](CC(N)=O)NC(=O)CC2	–
–	–	O=C1CCc2ccc(cc2)Oc2cccc(c2)CCNC(=O)[C@H](Cc2ccc(O)cc2)N1	inhibition [6]: 10%
inactive	–	O=C1CCc2cccc(c2)Oc2ccc(cc2)CCNC(=O)CN1	–
inactive	–	NC(=O)C[C@@H]1NC(=O)CCc2cccc(c2)Oc2ccc(cc2)CCNC1=O	–
–	–	N[C@@H](Cc1ccc(Oc2cc(C[C@H](N)C(=O)O)ccc2O)cc1)C(=O)O	I50 (Aminopeptidase B [7]): Not Active; IC50 (P388 [4]): > 10 mg/L; inhibition [8]: 13%
inactive	–	COC(=O)CCc1cccc(Oc2ccc(CCNC(=O)[C@H](CC(N)=O)NC(=O)OC(C)(C)C)cc2)c1	–
–	0.89 µM	COC(=O)[C@H]1Cc2ccc(O)c(c2)Oc2ccc(cc2)C[C@H](NC(C)=O)C(=O)N[C@@H](Cc2ccc(O)cc2)C(=O)N1	–
inactive	–	COC(=O)CCc1ccc(O)c(Oc2ccc(CCNC(=O)[C@H](CC(N)=O)NC(=O)OC(C)(C)C)cc2)c1	–
–	182 µM	COc1ccc2cc1Oc1ccc(cc1)C[C@@H](C(=O)O)NC(=O)[C@H](CC(N)=O)NC(=O)[C@@H](NC(=O)OCc1ccccc1)C2	–
inactive	–	COC(=O)[C@H](Cc1ccc(O)c(Oc2ccc(C[C@H](NC(=O)[C@H](CC(N)=O)NC(=O)OC(C)(C)C)C(=O)OC)cc2)c1)NC(=O)OCc1ccccc1	–
inactive	–	O=C1CCc2ccc(O)c(c2)Oc2ccc(cc2)CCNC(=O)CN1	–
–	–	COC(=O)[C@@H]1Cc2ccc(cc2)Oc2cc(ccc2OCc2ccccc2)C[C@H](NC(=O)OCc2ccccc2)C(=O)N[C@@H](CC(N)=O)C(=O)N1	inhibition [9]: 14%
inactive	–	CC(=O)N[C@@H](Cc1ccc(Oc2cc(C[C@H](NC(=O)[C@H](Cc3ccc(O)cc3)NC(=O)OC(C)(C)C)C(=O)O)ccc2OCc2ccccc2)cc1)C(=O)O	–
inactive	–	CC(C)(C)OC(=O)N[C@@H](Cc1ccc(Oc2cc(C[C@H](NC(=O)OCc3ccccc3)C(=O)O)ccc2OCc2ccccc2)cc1)C(=O)N[C@H](Cc1ccc(O)cc1)C(=O)O	–
inactive	–	COC(=O)CCc1ccc(OC)c(Oc2ccc(CCNC(=O)[C@H](CC(N)=O)NC(=O)OC(C)(C)C)cc2)c1	–
inactive	–	COC(=O)CCc1cccc(Oc2ccc(CCNC(=O)CNC(=O)OC(C)(C)C)cc2)c1	–
–	198 µM	COC(=O)[C@@H]1Cc2ccc(cc2)Oc2cc(ccc2O)C[C@H](NC(=O)OCc2ccccc2)C(=O)N[C@@H](CC(N)=O)C(=O)N1	–
–	210 µM	COC(=O)[C@@H]1Cc2ccc(cc2)Oc2cc(ccc2OC)C[C@H](NC(=O)OCc2ccccc2)C(=O)N[C@@H](CC(N)=O)C(=O)N1	–
–	–	CC(=O)N[C@@H]1Cc2ccc(cc2)Oc2cc(ccc2O)C[C@H](C(=O)O)NC(=O)[C@H](Cc2ccc(O)cc2)NC1=O	IC50 [10]: 0.183 µM; Ki [11]: 0.35 µM; inhibition [12]: 13%; IC50 (P388 [13]): > 10 mg/L
–	1.15 µM	COC(=O)[C@H]1Cc2ccc(O)c(c2)Oc2ccc(cc2)C[C@H](N)C(=O)N[C@@H](Cc2ccc(O)cc2)C(=O)N1	–
–	5.34 µM	COc1ccc2cc1Oc1ccc(cc1)C[C@H](NC(C)=O)C(=O)N[C@@H](Cc1ccc(O)cc1)C(=O)N[C@H](C(=O)O)C2	–
–	11.2 µM	O=C1CCc2ccc(cc2)Oc2cc(ccc2O)CCNC(=O)[C@H](Cc2ccc(O)cc2)N1	–
–	528 µM	NC(=O)C[C@@H]1NC(=O)CCc2ccc(O)c(c2)Oc2ccc(cc2)CCNC1=O	–

SMILES	inhibition [1]	IC50 [5]	also measured
COc1ccc2cc1Oc1ccc(cc1)C[C@@H](C(=O)O)NC(=O)[C@H](CC(N)=O)NC(=O)[C@@H](N)C2	–	149 µM	IC50 (P388 [4]): > 10 mg/L
COC(=O)[C@@H]1Cc2ccc(cc2)Oc2cc(ccc2O)C[C@H](N)C(=O)N[C@@H](CC(N)=O)C(=O)N1	–	42.5 µM	–
